Data from patent US20220370440A1 (Lead Discovery Center GmbH, priority 2018, published 2022).

What was measured:
[1] = test system: H1975; assay: H1975 CellTiter-Glo; type: cell-based; settings: Homo sapiens, NCI-H1975; 72 h compound incubation; read-out: H1975 CTG IC50
Outline: (§1)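 72 h compound exposure after 24 h attachment, 37° C./5% CO2; CellTiter-Glo ATP luminescence read-out; IC50 by dose-response fit; DMSO vehicle and 10 μM Staurosporine as controls; plates accepted only if Z′ ≥0.5.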

[2] = test system: A431; assay: A431 CellTiter-Glo; type: cell-based; settings: Homo sapiens, A-431; 72 h compound incubation; read-out: A431 CTG IC50
Outline: as §1

[3] = Metabolic stability in mouse liver microsomes without cofactor NADPH; type: in vitro ADME; settings: 3 μM test compound, mouse liver microsomes, without NADPH, 50 min, 37° C., LC-MS/MS
Outline: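 Cofactor-free incubation: no NADPH added to mouse liver microsomes, with compound at 3 μM and 37° C. Remaining parent was quantified by LC-MS/MS at time points up to 50 minutes to track depletion.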

[4] = target: T1, HER2 INS YVMA (Homo sapiens, UniProt P04626, INS775YVMA); assay: Lance Kinase Activity Assay, HER2 INS YVMA (Her2 Exon 20 INSYVMA Lance); type: biochemical; settings: biochemical Lance assay
T1 construct: purchased DPF
Outline: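 IC50 was fitted to sigmoidal curves of TR-FRET signal (665 and 615 nm emission after 340 nm excitation) from an Eu anti-phospho antibody binding the phosphorylated ULight peptide. The ATP-started reaction ran 1 h at RT and was then quenched with 10 mM EDTA plus antibody for a further 1 h. Compounds were tested as 8-point, 3-fold dilutions.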

[5] = target: EGFR Exon 20 INSNPH Ba/F3 (Homo sapiens, UniProt P00533, DUP771-773, cells depend on it); assay: EGFR Exon 20 INSNPH Ba/F3 CellTiter-Glo; type: cell-based; settings: CellTiter-Glo, 72 h, read-out: EGFR Exon 20 INSNPH Ba/F3 CTG IC50
Outline: (§2)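 ATP-based luminescence (CellTiter-Glo) after 72 h compound exposure gives viability; IC50 from dose-response fit. Cells seeded 24 h ahead at 37 °C, 5% CO2. Controls: DMSO vehicle and 10 μM staurosporine; runs kept only if Z′ ≥0.5.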

[6] = test system: H1781; assay: H1781 CellTiter-Glo; type: cell-based; settings: NCI-H1781; 72 h compound incubation; read-out: H1781 CTG IC50
Procedure: 2. Measurement of Cellular Activity
The CellTiter-Glo Luminescent Cell Viability Assay (Promega) is a homogeneous method of determining the number of viable cells in culture. It is based on quantification of ATP, indicating the presence of metabolically active cells. Cells are seeded on day 1 at cell numbers that assure assay linearity and optimal signal intensity. After incubation for 24 h in humidified chambers at 37° C. and 5% CO2, compounds in DMSO are added at different concentrations. Cells are further incubated for 72 h at 37° C. and 5% CO2. Cells treated with the compound vehicle DMSO are used as positive controls and cells treated with 10 μM Staurosporine serve as negative controls. At day 5 the CellTiter Glo Reagent is prepared according to the instructions of the kit (Promega Inc.): Reagent is mixed 1:1 with cell culture medium. Thereon, mixture and assay plates are equilibrated at room temperature for 20 min. Equal volumes of the reagent-medium-mixture is added to the volume of culture medium present in each well. The plates are mixed at ˜200 rpm for 2 minutes on an orbital shaker. The microplates are then incubated at room temperature for 10 minutes for stabilization of the luminescent signal. Following incubation the luminescence is recorded on a Victor microplate reader (Perkin Elmer) using a 200 ms integration time. The data is then analyzed with Excel using the XLFIT Plugin (dose response Fit 205) for IC50-determination. As quality control the Z′-factor is calculated from 16 positive and negative control values. Only assay results showing a Z′-factor ≥0.5 are used for further analysis.
(§3) Inhibition is indicated as […] [nM] (“−”=not measured). Compounds having an activity designated as “A” provided an IC50≤100 nM; compounds having an activity designated as “B” provided an 100 nM<IC50≤500 nM; compounds having an activity designated as “C” provided an 500 nM<IC50≤1000 nM; compounds having an activity designated as “D” provided an 1000 nM<IC50≤100000 nM; and compounds having an activity designated as “E” provided an IC50>10000 nM.

[7] = target: EGFR wt (Homo sapiens, UniProt P00533); assay: EGFR wt Lance assay; type: biochemical
Procedure: as §3

[8] = target: EGFR T790ML858R (Homo sapiens, UniProt P00533, L858R/T790M); assay: EGFR T790ML858R Lance assay; type: biochemical
Procedure: as §3

[9] = target: Her2 Exon 20 INSYVMA Ba/F3 (Homo sapiens, UniProt P04626, DUP772-775, cells depend on it); assay: Her2 Exon 20 INSYVMA Ba/F3 CellTiter-Glo; type: cell-based; settings: CellTiter-Glo, 72 h, read-out: Her2 Exon 20 INSYVMA Ba/F3 CTG IC50
Outline: as §2

T1 sequence (P04626 with tags, fused parts or gaps INS775YVMA): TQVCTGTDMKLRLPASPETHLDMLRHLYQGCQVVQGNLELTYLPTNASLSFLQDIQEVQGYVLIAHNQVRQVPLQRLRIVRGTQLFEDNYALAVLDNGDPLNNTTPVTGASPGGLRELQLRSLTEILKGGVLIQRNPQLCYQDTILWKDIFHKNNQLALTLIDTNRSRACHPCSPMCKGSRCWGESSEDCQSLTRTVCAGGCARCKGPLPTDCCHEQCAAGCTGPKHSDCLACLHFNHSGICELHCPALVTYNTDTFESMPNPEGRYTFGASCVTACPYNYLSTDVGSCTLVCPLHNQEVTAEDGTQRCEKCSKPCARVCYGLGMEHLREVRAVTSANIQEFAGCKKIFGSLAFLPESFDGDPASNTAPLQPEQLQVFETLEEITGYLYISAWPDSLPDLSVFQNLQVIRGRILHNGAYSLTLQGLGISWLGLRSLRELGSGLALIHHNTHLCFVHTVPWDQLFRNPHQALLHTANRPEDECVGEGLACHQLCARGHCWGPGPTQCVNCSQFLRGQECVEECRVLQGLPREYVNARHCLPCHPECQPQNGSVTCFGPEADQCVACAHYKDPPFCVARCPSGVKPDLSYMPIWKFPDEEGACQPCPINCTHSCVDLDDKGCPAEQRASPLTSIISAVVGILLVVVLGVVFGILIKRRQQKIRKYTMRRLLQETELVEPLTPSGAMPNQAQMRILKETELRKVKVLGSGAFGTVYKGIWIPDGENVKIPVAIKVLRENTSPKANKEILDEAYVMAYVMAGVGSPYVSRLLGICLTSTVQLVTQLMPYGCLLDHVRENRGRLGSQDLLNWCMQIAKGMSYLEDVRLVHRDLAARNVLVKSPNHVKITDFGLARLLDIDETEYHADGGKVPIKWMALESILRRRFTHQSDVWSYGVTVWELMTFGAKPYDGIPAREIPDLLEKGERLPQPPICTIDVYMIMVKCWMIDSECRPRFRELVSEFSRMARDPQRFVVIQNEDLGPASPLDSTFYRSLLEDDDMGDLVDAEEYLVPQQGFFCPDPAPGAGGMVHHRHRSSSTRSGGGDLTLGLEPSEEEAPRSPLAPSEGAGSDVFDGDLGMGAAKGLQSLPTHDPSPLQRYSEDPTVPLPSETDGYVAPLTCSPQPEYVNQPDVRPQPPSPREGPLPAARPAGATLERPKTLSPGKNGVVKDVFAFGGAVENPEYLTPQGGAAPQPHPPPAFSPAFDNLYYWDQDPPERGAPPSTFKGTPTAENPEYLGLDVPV
Chain of EGFR Exon 20 INSNPH Ba/F3 (P00533 with tags, fused parts or gaps DUP771-773): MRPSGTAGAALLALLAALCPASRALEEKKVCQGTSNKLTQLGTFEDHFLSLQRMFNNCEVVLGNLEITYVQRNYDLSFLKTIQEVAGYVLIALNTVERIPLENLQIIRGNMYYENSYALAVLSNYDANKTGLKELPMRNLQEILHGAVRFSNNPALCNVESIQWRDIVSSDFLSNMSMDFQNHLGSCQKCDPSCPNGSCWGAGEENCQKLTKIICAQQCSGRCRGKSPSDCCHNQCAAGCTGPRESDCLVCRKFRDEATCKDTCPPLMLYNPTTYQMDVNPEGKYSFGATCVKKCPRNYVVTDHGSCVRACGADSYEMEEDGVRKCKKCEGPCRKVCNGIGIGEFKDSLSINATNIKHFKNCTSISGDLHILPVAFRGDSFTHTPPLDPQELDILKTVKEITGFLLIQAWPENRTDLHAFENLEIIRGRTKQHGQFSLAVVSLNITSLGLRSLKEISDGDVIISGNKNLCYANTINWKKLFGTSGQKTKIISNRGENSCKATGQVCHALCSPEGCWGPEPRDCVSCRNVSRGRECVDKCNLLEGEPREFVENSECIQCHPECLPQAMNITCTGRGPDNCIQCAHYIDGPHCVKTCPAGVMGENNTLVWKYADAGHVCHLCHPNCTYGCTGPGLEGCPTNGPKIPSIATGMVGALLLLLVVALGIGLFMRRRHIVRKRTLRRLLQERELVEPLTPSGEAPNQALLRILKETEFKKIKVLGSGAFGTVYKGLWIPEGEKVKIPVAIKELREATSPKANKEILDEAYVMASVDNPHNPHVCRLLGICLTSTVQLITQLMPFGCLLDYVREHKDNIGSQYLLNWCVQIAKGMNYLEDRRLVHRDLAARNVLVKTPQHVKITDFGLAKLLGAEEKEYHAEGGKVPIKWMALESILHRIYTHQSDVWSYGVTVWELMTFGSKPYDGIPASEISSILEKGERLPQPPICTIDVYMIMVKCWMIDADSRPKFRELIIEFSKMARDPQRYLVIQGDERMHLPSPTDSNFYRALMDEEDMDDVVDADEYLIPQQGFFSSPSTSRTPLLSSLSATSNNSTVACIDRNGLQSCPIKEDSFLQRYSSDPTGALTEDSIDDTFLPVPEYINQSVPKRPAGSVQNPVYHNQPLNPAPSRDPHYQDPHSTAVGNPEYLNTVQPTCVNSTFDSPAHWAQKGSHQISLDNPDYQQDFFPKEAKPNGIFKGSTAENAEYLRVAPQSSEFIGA
Chain of Her2 Exon 20 INSYVMA Ba/F3 (P04626 with tags, fused parts or gaps DUP772-775): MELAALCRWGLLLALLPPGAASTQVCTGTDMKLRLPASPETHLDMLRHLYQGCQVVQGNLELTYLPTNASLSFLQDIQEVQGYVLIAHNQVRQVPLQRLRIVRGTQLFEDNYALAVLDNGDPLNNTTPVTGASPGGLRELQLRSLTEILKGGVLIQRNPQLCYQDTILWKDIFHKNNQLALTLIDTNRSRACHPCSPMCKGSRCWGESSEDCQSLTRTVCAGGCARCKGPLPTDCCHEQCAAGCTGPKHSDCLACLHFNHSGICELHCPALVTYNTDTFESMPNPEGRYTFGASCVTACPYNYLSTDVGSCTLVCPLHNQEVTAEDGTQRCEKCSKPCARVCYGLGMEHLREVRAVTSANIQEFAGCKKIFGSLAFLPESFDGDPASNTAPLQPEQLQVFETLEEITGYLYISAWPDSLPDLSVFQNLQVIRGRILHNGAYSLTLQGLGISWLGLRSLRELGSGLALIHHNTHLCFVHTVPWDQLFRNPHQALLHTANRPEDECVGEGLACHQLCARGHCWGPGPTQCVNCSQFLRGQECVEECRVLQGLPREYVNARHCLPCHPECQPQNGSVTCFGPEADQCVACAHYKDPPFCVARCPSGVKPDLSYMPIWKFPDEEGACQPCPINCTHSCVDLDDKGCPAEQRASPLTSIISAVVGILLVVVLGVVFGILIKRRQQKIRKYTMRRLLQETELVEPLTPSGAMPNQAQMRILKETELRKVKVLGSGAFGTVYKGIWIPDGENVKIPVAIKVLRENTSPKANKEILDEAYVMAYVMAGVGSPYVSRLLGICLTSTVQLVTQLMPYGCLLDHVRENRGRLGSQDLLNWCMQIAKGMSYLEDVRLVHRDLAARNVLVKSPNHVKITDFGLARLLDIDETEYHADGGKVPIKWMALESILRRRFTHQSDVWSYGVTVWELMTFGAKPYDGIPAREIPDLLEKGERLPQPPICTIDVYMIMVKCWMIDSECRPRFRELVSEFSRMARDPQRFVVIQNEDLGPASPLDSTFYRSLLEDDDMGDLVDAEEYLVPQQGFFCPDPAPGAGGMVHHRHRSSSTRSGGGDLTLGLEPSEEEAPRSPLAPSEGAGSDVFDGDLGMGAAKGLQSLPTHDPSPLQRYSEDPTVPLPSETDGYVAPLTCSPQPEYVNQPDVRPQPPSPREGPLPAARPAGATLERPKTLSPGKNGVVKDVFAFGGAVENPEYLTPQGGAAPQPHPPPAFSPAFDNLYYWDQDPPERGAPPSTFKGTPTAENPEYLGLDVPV
Chain of EGFR wt (P00533 25-1210): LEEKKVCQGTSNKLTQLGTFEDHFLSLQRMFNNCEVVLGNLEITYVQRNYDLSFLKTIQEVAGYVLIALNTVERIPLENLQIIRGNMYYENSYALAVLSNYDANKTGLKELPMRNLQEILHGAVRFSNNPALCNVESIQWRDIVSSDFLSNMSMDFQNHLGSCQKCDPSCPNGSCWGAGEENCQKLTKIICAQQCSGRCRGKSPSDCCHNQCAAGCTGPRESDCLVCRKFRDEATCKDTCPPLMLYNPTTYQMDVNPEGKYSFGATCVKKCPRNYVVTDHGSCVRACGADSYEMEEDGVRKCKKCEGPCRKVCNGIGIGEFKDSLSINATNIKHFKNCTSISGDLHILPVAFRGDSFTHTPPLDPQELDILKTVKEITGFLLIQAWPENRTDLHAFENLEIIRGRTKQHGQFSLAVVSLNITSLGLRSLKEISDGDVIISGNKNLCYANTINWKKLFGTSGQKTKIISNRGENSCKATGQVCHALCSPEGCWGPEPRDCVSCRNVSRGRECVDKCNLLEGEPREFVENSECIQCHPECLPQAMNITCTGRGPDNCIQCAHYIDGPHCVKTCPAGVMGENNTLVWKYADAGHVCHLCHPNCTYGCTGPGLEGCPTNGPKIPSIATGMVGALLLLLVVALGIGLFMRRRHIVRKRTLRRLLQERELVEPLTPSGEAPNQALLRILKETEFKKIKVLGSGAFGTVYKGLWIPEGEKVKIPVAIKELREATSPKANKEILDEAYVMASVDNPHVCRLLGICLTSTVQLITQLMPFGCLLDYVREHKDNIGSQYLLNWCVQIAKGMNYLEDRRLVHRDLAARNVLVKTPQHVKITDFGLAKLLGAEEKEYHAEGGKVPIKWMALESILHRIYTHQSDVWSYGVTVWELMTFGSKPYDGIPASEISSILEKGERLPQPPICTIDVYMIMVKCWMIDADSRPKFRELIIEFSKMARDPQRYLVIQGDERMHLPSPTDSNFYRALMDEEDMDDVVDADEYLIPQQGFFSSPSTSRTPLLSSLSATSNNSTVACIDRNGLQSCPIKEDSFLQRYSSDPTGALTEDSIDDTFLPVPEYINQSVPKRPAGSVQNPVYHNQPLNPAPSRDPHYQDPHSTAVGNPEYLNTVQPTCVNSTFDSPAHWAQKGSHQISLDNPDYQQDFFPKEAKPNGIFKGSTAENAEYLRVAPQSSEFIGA

Structure (SMILES) | IC50 [1] [nM] | IC50 [2] [nM] | Stability in presence of mouse liver microsomes without cofactor NADPH [% remaining after 50 min] [3] [% remaining after 50 min] | IC50 [4] [nM] | GI50 [5] [nM] | IC50 [6] [nM] | IC50 [7] [nM] | IC50 [8] [nM] | GI50 [9] [nM]
C=CC(=O)Nc1cc(-c2c(-c3ccc(N4CCN(S(=O)(=O)CC)CC4)cc3)[nH]c3nccc(Cl)c23)ccc1C [Example 15, N-(5-(4-chloro-2-(4-(4-(ethylsulfonyl)piperazin-1-yl)phenyl)-1H-pyrrolo[2,3-b]pyridin-3-yl)-2-methylphenyl)acrylamide] | ≤ 100 | 100 to 500 | >99 | 100 to 500 | 100 to 500 | 500 to 1000 | ≤ 100 | ≤ 100 | 100 to 500
C=CC(=O)Nc1cc(-c2c(-c3ccc(CCN(C)C)cc3)[nH]c3nccc(Cl)c23)ccc1C [Example 4, N-(5-(4-chloro-2-(4-(2-(dimethylamino)ethyl)phenyl)-1H-pyrrolo[2,3-b]pyridin-3-yl)-2-methylphenyl)acrylamide] | ≤ 100 | 100 to 500 | >99 | ≤ 100 | 100 to 500 | 100 to 500 | ≤ 100 | ≤ 100 | 100 to 500
C=CC(=O)N1CCCc2ccc(-c3c(-c4cccc(OCCN(C)C)c4)[nH]c4nccc(Cl)c34)cc21 [Example 88, 1-(7-(4-chloro-2-(3-(2-(dimethylamino)ethoxy)phenyl)-1H-pyrrolo[2,3-b]pyridin-3-yl)-3,4-dihydroquinolin-1(2H)-yl)prop-2-en-1-one] | 100 to 500 | 1000 to 100000 | >99 | ≤ 100 | 1000 to 10000 |  | ≤ 100 | ≤ 100 | 1000 to 10000
C=CC(=O)Nc1cc(-c2c(-c3ccc(CN(C)C)cc3)[nH]c3ncc(C(=O)OC(C)C)cc23)cc(F)c1C [Example 177, isopropyl 3-(3-acrylamido-5-fluoro-4-methylphenyl)-2-(4-((dimethylamino)methyl)phenyl)-1H-pyrrolo[2,3-b]pyridine-5-carboxylate] | 100 to 500 | 1000 to 100000 | >99 | ≤ 100 | 100 to 500 |  | ≤ 100 | ≤ 100 | 100 to 500
C=CC(=O)N1CCc2ccc(-c3c(-c4ccc(C(=O)N5CCN(C)CC5)cc4)[nH]c4nccc(Cl)c34)cc21 [Example 66, 1-(6-(4-chloro-2-(4-(4-methylpiperazine-1-carbonyl)phenyl)-1H-pyrrolo[2,3-b]pyridin-3-yl)indolin-1-yl)prop-2-en-1-one] | 100 to 500 | 1000 to 100000 | >99 | ≤ 100 | 500 to 1000 |  | ≤ 100 | ≤ 100 | 100 to 500

Next, values leading:

IC50 [1] [nM] | IC50 [2] [nM] | Stability in presence of mouse liver microsomes without cofactor NADPH [% remaining after 50 min] [3] [% remaining after 50 min] | IC50 [4] [nM] | GI50 [5] [nM] | IC50 [6] [nM] | IC50 [7] [nM] | IC50 [8] [nM] | GI50 [9] [nM] | Structure (SMILES)
≤ 100 | 100 to 500 | 99 | ≤ 100 | ≤ 100 | 100 to 500 | ≤ 100 | ≤ 100 | ≤ 100 | C=CC(=O)Nc1cc(-c2c(-c3ccc(C4CCN(C)CC4)cc3)[nH]c3nccc(OC)c23)ccc1C [Example 73, N-(5-(4-methoxy-2-(4-(1-methylpiperidin-4-yl)phenyl)-1H-pyrrolo[2,3-b]pyridin-3-yl)-2-methylphenyl)acrylamide]
≤ 100 | 100 to 500 | >99 | ≤ 100 | ≤ 100 | 100 to 500 | ≤ 100 | ≤ 100 | 100 to 500 | C=CC(=O)Nc1cc(-c2c(-c3ccc(CN4CCN(C)CC4)cc3)[nH]c3nccc(Cl)c23)ccc1C [Example 1, N-(5-(4-chloro-2-(4-((4-methylpiperazin-1-yl)methyl)phenyl)-1H-pyrrolo[2,3-b]pyridin-3-yl)-2-methylphenyl)acrylamide 2,2,2-trifluoroacetate]
≤ 100 | 100 to 500 |  | ≤ 100 | 100 to 500 | 100 to 500 | ≤ 100 | ≤ 100 | 100 to 500 | C=CC(=O)Nc1cc(-c2c(-c3cccc(C(=O)NC4CCN(Cc5ccccc5)CC4)c3)[nH]c3nccc(Cl)c23)ccc1C [Example 48, 3-(3-(3-acrylamido-4-methylphenyl)-4-chloro-1H-pyrrolo[2,3-b]pyridin-2-yl)-N-(1-benzylpiperidin-4-yl)benzamide]
≤ 100 | 500 to 1000 | >99 | ≤ 100 | 100 to 500 | 500 to 1000 | ≤ 100 | ≤ 100 | 100 to 500 | C=CC(=O)Nc1cc(-c2c(-c3cccc(CN4CCN(C)CC4)c3)[nH]c3nccc(OC)c23)ccc1C [Example 76, N-(5-(4-methoxy-2-(3-((4-methylpiperazin-1-yl)methyl)phenyl)-1H-pyrrolo[2,3-b]pyridin-3-yl)-2-methylphenyl)acrylamide]
≤ 100 | 500 to 1000 | 89 | ≤ 100 | 100 to 500 |  | ≤ 100 | ≤ 100 | 100 to 500 | C=CC(=O)N1CCc2ccc(-c3c(-c4ccc(N5CCN(C)CC5)cc4)[nH]c4nccc(OCC)c34)cc21 [Example 104, 1-(6-(4-ethoxy-2-(4-(4-methylpiperazin-1-yl)phenyl)-1H-pyrrolo[2,3-b]pyridin-3-yl)indolin-1-yl)prop-2-en-1-one 2,2,2-trifluoroacetate]
≤ 100 | 500 to 1000 | 98 | ≤ 100 | 100 to 500 |  | ≤ 100 | ≤ 100 | 100 to 500 | C=CC(=O)N1CCc2ccc(-c3c(-c4cccc(CN5CCN(C)CC5)c4)[nH]c4nccc(Cl)c34)cc21 [Example 69, 1-(6-(4-chloro-2-(3-((4-methylpiperazin-1-yl)methyl)phenyl)-1H-pyrrolo[2,3-b]pyridin-3-yl)indolin-1-yl)prop-2-en-1-one]
≤ 100 | 100 to 500 | >99 | ≤ 100 | ≤ 100 |  | ≤ 100 | ≤ 100 | 100 to 500 | C=CC(=O)Nc1cc(-c2c(-c3ccc(N4CCN(C)CC4)cc3)[nH]c3ncc(C#N)cc23)ccc1C [Example 97, N-(5-(5-cyano-2-(4-(4-methylpiperazin-1-yl)phenyl)-1H-pyrrolo[2,3-b]pyridin-3-yl)-2-methylphenyl)acrylamide 2,2,2-trifluoroacetate]
